Values joined by “and” are separate entries in the source; they are usually repeats but may differ in a detail not shown here. Equal entries are not always repeated.

One assay deals with T1, hBK (Homo sapiens, UniProt Q12791).
T1 construct: expressed in transfected cells; host or cells: HEK293 (transient, co-transfected with eGFP)
Briefly: Manual whole cell patch clamp, HEK293 transiently transfected with hBK. The class given is cell-based. The following applies: BBP 1 μM, manual patch clamp, 100 nM free intracellular calcium, n = 8. How it is done: (§1) HEK293 cells were transiently co-transfected with the plasmid of interest (hBK, hSK1, hSK2, hSK3 WT, rSK3 H491N, or hIK) and eGFP using standard Lipofectamine™ 2000 (Thermo Fisher Scientific, Waltham, Massachussets, USA) transfection protocols. After transfection, cells were incubated overnight before the experiments.
Manual patch clamp experiments were performed at room temperature in the whole cell configuration with a HEKA EPC9 amplifier and the Patchmaster software (HEKA Elektronik, Ludwigshafen, Germany). All currents were elicited every 2 s using an incremental 200 ms voltage-ramp protocol starting at −80 mV and finishing at +80 mV from a holding potential of 0 mV. […]
(§2) To assess the effect of BBP on other calcium-activated potassium channels (hBK, hSK3 WT, rSK3 H491N, and hIK), each individual current was first normalized to its cell size using membrane's capacitance (pA/pF) before statistical analysis. […] Statistical significance between saline and the effect of both BBP and the corresponding reference compound was determined for each channel using one-way ANOVA analysis. […]
After testing BBP on the three SK channel subtypes, we decided to explore whether other calcium-activated potassium channels were affected by the compound. […] Finally, a positive control was used to inhibit the remaining current and quantify the total effect of BBP. […]
(The patch-clamp technique gives a direct electrical read-out from membranes.)

In assay [1] the test system is all three SK channel subtypes. Briefly: Automated patch clamp, summary over all three SK channel subtypes. The following applies: summary value, read-out: IC50 on all three SK channel subtypes (similar potency). The assay is classed as cell-based, human. As to the method: Three different stable HEK293 cell lines expressing hSK1, hSK2 or hSK3 (NeuroSearch A/S, Ballerup, Denmark) and a CHO stable cell line expressing hERG (University of Copenhagen, Copenhagen, Denmark) were used for automated patch clamp. These cells were cultivated and prepared as previously described (Skarsfeldt et al., [2016]).
Automated patch clamp (QPatch 16, Sophion, Denmark) on SK-expressing HEK293 cell lines was conducted as previously described (Simó-Vicens et al., [2017b]). Briefly, SK currents were elicited by voltage-ramps starting at −80 mV and finishing at +80 mV from a holding potential of 0 mV. Extracellular solution contained 0.1 mM CaCl2, 3 mM MgCl2, 154 mM KCl, 10 mM HEPES and 10 mM glucose with pH 7.4. Intracellular solution for SK experiments contained 8.106 mM CaCl2 (final free calcium concentration of 400 nM), 1.167 mM MgCl2, 10 mM EGTA, 154 mM KCl, 10 mM HEPES, 31.25/ 10 mM KOH/EGTA and 15 mM KOH with pH 7.2. Automated patch clamp on hERG-expressing CHO cell line was performed also as previously described (Skarsfeldt et al., [2016]).
Where Y is the normalized response, from 100, corresponding to current recorded during saline perfusion, down to 0, corresponding to currents recorded in the presence of bicuculline methiodide 100 μM. X is the log of the BBP concentration. A standard Hill Slope of −1 was considered for this purpose. […]

Another assay addresses T2, hSK3 WT (Homo sapiens, UniProt Q9UGI6).
T2 construct: expressed in transfected cells; host or cells: HEK293 (transient, co-transfected with eGFP)
Briefly: Manual whole cell patch clamp, HEK293 transiently transfected with hSK3 WT. The assay is classed as cell-based. The conditions noted are these: BBP 1 μM, compared to positive control bicuculline methiodide 100 μM, n = 5, read-out: Inhibition of hSK3 current. How it is done: as §1
Manual patch clamp experiments were performed at room temperature in the whole cell configuration with a HEKA EPC9 amplifier and the Patchmaster software (HEKA Elektronik, Ludwigshafen, Germany). All currents were elicited every 2 s using an incremental 200 ms voltage-ramp protocol starting at −80 mV and finishing at +80 mV from a holding potential of 0 mV. […] Currents were measured using the same solutions as the ones used for automated patch clamp, with symmetrical potassium concentrations and a free intracellular calcium concentration of 400 nM. […]
as §2

T1 sequence (Q12791 whole entry): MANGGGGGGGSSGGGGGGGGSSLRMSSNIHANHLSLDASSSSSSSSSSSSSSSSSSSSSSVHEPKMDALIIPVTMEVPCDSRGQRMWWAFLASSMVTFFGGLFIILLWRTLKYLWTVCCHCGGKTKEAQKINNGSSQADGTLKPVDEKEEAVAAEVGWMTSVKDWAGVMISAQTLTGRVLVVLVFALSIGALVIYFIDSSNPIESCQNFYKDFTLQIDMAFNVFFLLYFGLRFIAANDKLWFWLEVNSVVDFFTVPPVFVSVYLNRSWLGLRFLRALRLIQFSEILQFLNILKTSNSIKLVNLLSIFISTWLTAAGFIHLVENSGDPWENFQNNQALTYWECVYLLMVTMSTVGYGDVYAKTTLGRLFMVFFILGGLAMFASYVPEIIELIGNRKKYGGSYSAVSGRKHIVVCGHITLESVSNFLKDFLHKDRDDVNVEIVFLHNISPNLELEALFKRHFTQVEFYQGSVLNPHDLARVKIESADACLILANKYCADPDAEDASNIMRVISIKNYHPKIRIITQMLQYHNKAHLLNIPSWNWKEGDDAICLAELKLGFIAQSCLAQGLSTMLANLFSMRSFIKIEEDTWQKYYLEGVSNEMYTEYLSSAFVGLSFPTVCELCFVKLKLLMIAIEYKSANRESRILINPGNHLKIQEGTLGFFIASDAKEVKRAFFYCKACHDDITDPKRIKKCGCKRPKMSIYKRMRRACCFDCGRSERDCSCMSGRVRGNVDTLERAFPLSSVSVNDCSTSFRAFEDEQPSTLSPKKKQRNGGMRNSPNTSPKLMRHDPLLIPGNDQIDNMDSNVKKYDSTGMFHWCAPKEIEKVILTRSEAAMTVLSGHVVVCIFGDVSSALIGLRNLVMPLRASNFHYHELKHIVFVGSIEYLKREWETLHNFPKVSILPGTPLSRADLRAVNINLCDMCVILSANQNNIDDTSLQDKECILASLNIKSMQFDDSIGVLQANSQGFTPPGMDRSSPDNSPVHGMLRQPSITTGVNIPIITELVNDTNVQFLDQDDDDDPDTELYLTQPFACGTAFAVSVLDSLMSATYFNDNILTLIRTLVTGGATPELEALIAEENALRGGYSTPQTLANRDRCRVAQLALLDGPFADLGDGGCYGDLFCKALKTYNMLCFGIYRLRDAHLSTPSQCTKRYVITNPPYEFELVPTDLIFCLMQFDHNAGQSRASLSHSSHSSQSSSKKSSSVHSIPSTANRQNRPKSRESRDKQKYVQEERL

In general, IC50 refers to the concentration needed to halve the response being measured. As a reminder, the inhibition is the change of the read-out against control, counted positive when it falls. `c1cc(-c2nc3ccccc3[nH]2)nc(-c2nc3ccccc3[nH]2)c1` [BBP, 2,6-Bis(2-benzimidazolyl)pyridine]: the “Reduction of hBK current” value on hBK is 19 ± 6%. In addition, the IC50 in assay [1] was 400 nM and ~400 nM. Besides, the inhibition at 1 µM at hSK3 WT turned out to be 92.5 ± 2.3%.

Source of the values: PMC6287599, “2,6-Bis(2-Benzimidazolyl)Pyridine (BBP) Is a Potent and Selective Inhibitor of Small Conductance Calcium-Activated Potassium (SK) Channels” (Frontiers in Pharmacology, 2018).
